Among the test systems are A498; A549; BT-549; CCRF-CEM; EKVX; HCT-116; HCT-15; HT-29; Hs-578T; LOX IMVI; M14; MCF7; OVCAR-3; OVCAR-5; RPMI-8226; SF-268; SF-295; SK-MEL-5; OVCAR-4; SR.
Common to all, as to assay: NCI anticancer screen, dose series, 48 h

Each structure is given as a SMILES string.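 96-well plates; 48 h exposure; 5 concentrations. Endpoints by linear interpolation between flanking doses. Not reached: highest tested concentration assigned. The concentration for 50% growth inhibition is given as GI50.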 Activity calls are given as the source filed them. No stated cut-off is given here; in the data, active = GI50 up to about 1.1 µM and inactive = higher. Square brackets hold non-standard residues; d marks the D form. Peptide text beside a SMILES is read from it. pGlu = O=C1CC[CH](C(=O)O)N1

For `Brc1cccc[n+]1-c1ccc2cc(-[n+]3ccccc3Br)ccc2c1`, the GI50 in the assay on A498 is > 100 µM (inactive); with A549 it was 38.9 µM (inactive); in the assay with BT-549 it was 97.9 µM (inactive); in the assay on CCRF-CEM, 34.1 µM (inactive); in the assay on EKVX, 47.6 µM (inactive); in the assay on HCT-116, 39.6 µM (inactive). The GI50 in the assay with HCT-15 is 32.5 µM; with HT-29, 29.1 µM (inactive); with Hs-578T it was 56.9 µM (inactive); in the assay with LOX IMVI, 16.3 µM (inactive); with M14 it was > 100 µM (inactive); with MCF7 it was 35.7 µM (inactive). Further, the GI50 with OVCAR-3 was 19.8 µM (inactive); in the assay on OVCAR-5, 39.8 µM (inactive); in the assay with RPMI-8226, 19.5 µM (inactive); in the assay with SF-268 it was 31.8 µM (inactive); with SF-295 it was 53.3 µM (inactive); in the assay on SK-MEL-5, 77.3 µM (inactive).
In the case of `NCC(=O)NC(CO)C(=O)O` (centres undefined), the GI50 with A498, with A549, with BT-549, in the assay on CCRF-CEM, with EKVX and with HCT-116 was > 100 µM (inactive) throughout. Also, the GI50 in the assay with HCT-15 was greater than 100 µM; in the assay with HT-29, > 100 µM (inactive); with Hs-578T it was > 100 µM (inactive); with LOX IMVI it was > 100 µM (inactive); in the assay on M14 it was > 100 µM (inactive); in the assay with MCF7, > 100 µM (inactive). The GI50 with OVCAR-3, in the assay with OVCAR-4, in the assay with OVCAR-5, in the assay on RPMI-8226, with SF-268 and with SF-295 was > 100 µM (inactive) each time. In the assay on SK-MEL-5, the GI50 was > 100 µM (inactive).
`CC(NC(=O)C(Cc1c[nH]cn1)NC(=O)C1CCC(=O)N1)C(N)=O` (stereo not drawn) ([pGlu]-His-Ala-NH2; configuration not given here): the GI50 in the assay on A549, with BT-549, with CCRF-CEM, in the assay on EKVX, in the assay on HCT-116 and with HT-29 was > 100 µM (inactive) each time. The GI50 in the assay with Hs-578T, in the assay on LOX IMVI, in the assay on M14, in the assay on MCF7, in the assay on OVCAR-3 and with OVCAR-5 was > 100 µM (inactive) in each case. The GI50 with RPMI-8226, in the assay with SF-268, in the assay on SF-295, in the assay on SK-MEL-5 and with SR was > 100 µM (inactive) in each case.
`O=C(c1ccco1)N(C(=S)OCCOc1ccccc1)c1ccccc1`: the GI50 with A498 is 16 µM (inactive); with A549, 30.8 µM (inactive); with BT-549, 23 µM (inactive); in the assay with CCRF-CEM it was 20.1 µM (inactive); with EKVX it was 22.1 µM (inactive); with HCT-116 it was 17.3 µM (inactive). The GI50 is 22.3 µM in the assay with HCT-15; 19.2 µM (inactive) in the assay on HT-29; 32.1 µM (inactive) with Hs-578T; 19.3 µM (inactive) with LOX IMVI; 19.5 µM (inactive) in the assay with M14; 20.7 µM (inactive) in the assay on MCF7. In addition, the GI50 in the assay on OVCAR-3 is 16.5 µM (inactive); in the assay on OVCAR-4 it was 20 µM (inactive); with OVCAR-5, 19.2 µM (inactive); with RPMI-8226, 19.8 µM (inactive); with SF-268, 18 µM (inactive); in the assay on SF-295, 16.2 µM (inactive).
For the molecule `Oc1c(CN2CCOCC2)ccc2cccnc12`, the GI50 is > 10 µM (inactive) in the assay on A498; > 10 µM (inactive) in the assay with A549; 1.51 µM (inactive) in the assay with BT-549; 2.54 µM (inactive) in the assay with CCRF-CEM; > 10 µM (inactive) in the assay with EKVX; 6.55 µM (inactive) in the assay on HCT-116. Moreover, the GI50 in the assay with HCT-15 was 4.59 µM; in the assay with HT-29, > 10 µM (inactive); in the assay with Hs-578T, > 10 µM (inactive); with LOX IMVI, > 10 µM (inactive); in the assay on M14 it was > 10 µM (inactive); with MCF7, 4.14 µM (inactive). The GI50 in the assay on OVCAR-3, in the assay on OVCAR-4, in the assay with OVCAR-5, with RPMI-8226, with SF-268 and in the assay on SF-295 was > 10 µM (inactive) each time. Further, the GI50 in the assay with SK-MEL-5 is > 10 µM (inactive).
Regarding `CN(C)c1ccc(/C=C(\NC(=O)c2ccccc2)C(=O)Nc2ccccc2C(=O)NCc2ccccc2)cc1`, the GI50 in the assay on A498 was > 100 µM (inactive); with A549, > 100 µM (inactive); in the assay on BT-549 it was > 100 µM (inactive); with CCRF-CEM, 62.4 µM (inactive); in the assay on EKVX, > 100 µM (inactive); in the assay on HCT-116, > 100 µM (inactive). The GI50 with HCT-15 is greater than 100 µM; in the assay on HT-29, > 100 µM (inactive); in the assay with Hs-578T, > 100 µM (inactive); in the assay on LOX IMVI it was > 100 µM (inactive); in the assay on M14, 77.6 µM (inactive); with MCF7, > 100 µM (inactive). For the same molecule, the GI50 in the assay on OVCAR-3 is > 100 µM (inactive); with OVCAR-4, 58.2 µM (inactive); in the assay on OVCAR-5, > 100 µM (inactive); with RPMI-8226 it was 67.5 µM (inactive); in the assay with SF-268, > 100 µM (inactive); in the assay on SF-295 it was > 100 µM (inactive). The GI50 in the assay with SK-MEL-5 was 41.9 µM (inactive).
Regarding `CCc1nc2cc(F)ccc2[nH]c1=O`, the GI50 with A498 is 22.4 µM (inactive); in the assay on A549 it was > 100 µM (inactive); in the assay with BT-549, > 100 µM (inactive); in the assay on CCRF-CEM, > 100 µM (inactive); with EKVX, 2.34 µM (inactive); with HCT-116 it was > 100 µM (inactive). The GI50 in the assay with HCT-15 was greater than 100 µM; in the assay on HT-29, > 100 µM (inactive); in the assay on Hs-578T, 10.4 µM (inactive); with LOX IMVI it was > 100 µM (inactive); with M14 it was > 100 µM (inactive); with MCF7, > 100 µM (inactive). In addition, the GI50 with OVCAR-3, in the assay with OVCAR-4, with OVCAR-5, with RPMI-8226, in the assay on SF-268 and in the assay on SF-295 was > 100 µM (inactive) in each case. In the assay on SK-MEL-5, the GI50 is > 100 µM (inactive).
Take `CC(=O)/N=C1\NC(=O)/C(=C/c2ccc(Cl)cc2Cl)N1C`: the GI50 in the assay on A549 is > 100 µM (inactive); in the assay on BT-549, 87.7 µM (inactive); in the assay on CCRF-CEM, 3.44 µM (inactive); with EKVX it was 1.02 µM (active); in the assay with HCT-116, 30.8 µM (inactive); in the assay with HCT-15, 27.9 µM. Also, the GI50 is 52 µM (inactive) with HT-29; 23.1 µM (inactive) with Hs-578T; 17.6 µM (inactive) in the assay with LOX IMVI; 95.3 µM (inactive) in the assay with M14; > 100 µM (inactive) with MCF7; 96.4 µM (inactive) in the assay with OVCAR-3. Further, the GI50 in the assay with OVCAR-4 is 55.1 µM (inactive); in the assay on OVCAR-5 it was > 100 µM (inactive); in the assay with SF-268, 56.6 µM (inactive); in the assay with SF-295, 96.2 µM (inactive); in the assay on SK-MEL-5, 35.7 µM (inactive).
For the molecule `COC(=O)c1ccc(/C=C(\c2ccc([N+](=O)[O-])o2)S(=O)(=O)c2ccc(NC(C)=O)cc2)o1`, the GI50 with A549 is 16.7 µM (inactive); with BT-549 it was 0.565 µM (active); with EKVX it was 11.9 µM (inactive); in the assay on HCT-116, 2.46 µM (inactive); with HCT-15, 2.45 µM; with HT-29 it was 2.59 µM (inactive). The GI50 with Hs-578T was 2.1 µM (inactive); with M14, 4.14 µM (inactive); in the assay on MCF7, 5.36 µM (inactive); in the assay with OVCAR-3, 5.9 µM (inactive); with OVCAR-4 it was 2.22 µM (inactive); with OVCAR-5 it was 3.8 µM (inactive). In addition, the GI50 is 1.22 µM (inactive) with RPMI-8226; 13.6 µM (inactive) in the assay on SF-268; 17.5 µM (inactive) in the assay on SF-295; 3.93 µM (inactive) in the assay on SK-MEL-5; 1.77 µM (inactive) in the assay on SR.
As for `COP(=O)(OC)C(Nc1ccc(Cc2ccc(NC(c3ccco3)P(=O)(OC)OC)cc2)cc1)c1ccco1` (centres undefined), the GI50 in the assay with A498 is 19 µM (inactive); with A549 it was > 100 µM (inactive); with BT-549, 17.3 µM (inactive); with CCRF-CEM, > 100 µM (inactive); with EKVX, 20.9 µM (inactive); with HCT-116 it was 35.9 µM (inactive). In addition, the GI50 in the assay with HCT-15 was greater than 100 µM; in the assay with HT-29 it was > 100 µM (inactive); with Hs-578T it was 11.4 µM (inactive); in the assay with LOX IMVI, 82.2 µM (inactive); in the assay on M14, 38.1 µM (inactive); in the assay with MCF7, > 100 µM (inactive). Moreover, the GI50 in the assay on OVCAR-3 was 85.1 µM (inactive); in the assay with OVCAR-4, > 100 µM (inactive); in the assay with OVCAR-5 it was 46.8 µM (inactive); in the assay on SF-268, 15.4 µM (inactive); with SF-295, 11.5 µM (inactive); in the assay on SK-MEL-5, > 100 µM (inactive).
With `Oc1cc(O)c2c(c1)OC(c1ccc(O)c(O)c1)C(O)C2c1c(O)cc(O)c2c1OC(c1ccc(O)c(O)c1)C(O)C2` (centres undefined), the GI50 was 45.5 µM (inactive) in the assay on A498; > 100 µM (inactive) with A549; > 100 µM (inactive) with BT-549; > 100 µM (inactive) in the assay with EKVX; > 100 µM (inactive) with HCT-116; greater than 100 µM with HCT-15. The GI50 in the assay on HT-29, in the assay with Hs-578T, in the assay on LOX IMVI, in the assay on M14, in the assay with MCF7 and with OVCAR-3 was > 100 µM (inactive) throughout. The GI50 with OVCAR-4, with OVCAR-5, in the assay with RPMI-8226, in the assay with SF-268, with SF-295 and in the assay on SK-MEL-5 was > 100 µM (inactive) throughout.

For the origin of these results see ChEMBL document CHEMBL1201862, “PubChem BioAssay data set” (2004).
